Consider one molecule from patent US8536196B2, “Substituted 1,3-dioxanes useful as PPAR modulators” (Evolva SA, priority 2007, dated 2013).

For the assay, the target named is T1, mPPARalphaLBD (Mus musculus, UniProt P23204).
T1 construct: expressed in transfected cells
T1 sequence (P23204 239-466 limits assumed): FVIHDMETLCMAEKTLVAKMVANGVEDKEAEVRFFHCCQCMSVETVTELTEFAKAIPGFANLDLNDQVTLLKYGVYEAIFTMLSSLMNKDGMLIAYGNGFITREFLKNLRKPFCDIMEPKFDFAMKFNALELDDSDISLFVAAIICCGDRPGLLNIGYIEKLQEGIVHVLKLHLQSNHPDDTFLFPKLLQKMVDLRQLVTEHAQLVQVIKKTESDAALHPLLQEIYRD
In words: PPARalpha transactivation assay. The assay is classed as cell-based. Here is the method: This example describes a transactivation assay for determining PPARalpha modulating activity.
DPD and other ligands are tested for their ability to transactivate PPARalpha essentially as described in Example 22.

As to `O=C(O)CC/C=C\CC1COC(c2ccccc2Cl)OC1c1ccccc1O` (racemic) [SN1, (Z)-6-(-2-(2-chlorophenyl)-4-(2-hydroxyphenyl)-1,3-dioxan-5-yl)hex-4-enoic acid], the “increase in PPARalpha transactivation” value was “no transactivation”.
